Data reported in the NIST ThermoML archive (doi:10.1021/acs.jced.8b00692).
Where “and” joins values, the source holds several entries; their conditions need not be identical. Equal values may be shown once.

Legend:
[1] = Liquid; for viscosity: Concentric cylinders viscometry; for speed of sound: Single path-length method; for mass density: Vibrating tube method
[2] = xn = mol fraction of the nth substance listed; conditions: 102 kPa, Liquid, x2 = 0; for viscosity: Concentric cylinders viscometry; for speed of sound: Frequency=3 MHz, Single path-length method; for mass density: Vibrating tube method

CCCC1CCCCC1 [1-cyclohexylpropane]
[1], 102 kPa
Conditions	mass density [kg/m3]	viscosity [mPa·s]
293.15 K	793.54	0.996
303.15 K	785.73	0.86
313.15 K	777.9	0.75
323.15 K	770.04	0.663
333.15 K	762.12	0.584
343.15 K	754.2	0.544
353.15 K	746.1	0.477
363.15 K	738	0.452

[1], 102 kPa, Frequency=3 MHz
Conditions	speed of sound [m/s]
293.15 K	1307.8
303.15 K	1266.2
313.15 K	1225.6
323.15 K	1185.9
333.15 K	1147.3

CCCCCCCCCCC1CCCCC1 [decylcyclohexane]
[1], 102 kPa
Conditions	mass density [kg/m3]	viscosity [mPa·s]
293.15 K	818.55	5.32
303.15 K	811.78	4.09
313.15 K	805.02	3.23
323.15 K	798.27	2.62
333.15 K	791.5	2.16
343.15 K	784.8	1.82
353.15 K	778	1.55
363.15 K	771.2	1.34
373.15 K	764.4	1.17

[1], 102 kPa, Frequency=3 MHz
Conditions	speed of sound [m/s]
293.15 K	1406.7
303.15 K	1369.4
313.15 K	1333
323.15 K	1297.5
333.15 K	1262.9

CCCCCCCCCCCCC1CCCCC1 [dodecylcyclohexane]
[1], 102 kPa
Conditions	mass density [kg/m3]	viscosity [mPa·s]
293.15 K	822.31	7.76
303.15 K	815.65	5.81
313.15 K	809.01	4.48
323.15 K	802.37	3.55
333.15 K	795.74	2.88
343.15 K	789.1	2.39
353.15 K	782.5	2.01
363.15 K	775.9	1.72
373.15 K	769.2	1.48

[1], 102 kPa, Frequency=3 MHz
Conditions	speed of sound [m/s]
293.15 K	1423.3
303.15 K	1386.3
313.15 K	1350.4
323.15 K	1315.2
333.15 K	1281.1

CCCCCCCC1CCCCC1 [heptylcyclohexane]
[1], 102 kPa
Conditions	mass density [kg/m3]	viscosity [mPa·s]
293.15 K	810.99	2.8
303.15 K	803.96	2.26
313.15 K	796.93	1.86
323.15 K	789.89	1.56
333.15 K	782.83	1.33
343.15 K	775.8	1.15
353.15 K	768.7	0.993
363.15 K	761.6	0.892
373.15 K	754.4	0.776

[1], 102 kPa, Frequency=3 MHz
Conditions	speed of sound [m/s]
293.15 K	1374.4
303.15 K	1336.1
313.15 K	1298.7
323.15 K	1262.1
333.15 K	1226.5

CCCCCCCCCCCCCCCC [hexadecane]
[1]
Conditions	mass density, 102 kPa	speed of sound, 101.33 kPa [m/s]	viscosity, 102 kPa [mPa·s]
293.15 K	773.37 kg/m3	1357.4	3.47
303.15 K	766.43 kg/m3	1319.6	2.76
313.15 K	759.51 kg/m3	1282.9	2.24
323.15 K	752.61 kg/m3	1247	1.86
333.15 K	745.69 kg/m3	1212.1	1.56
343.15 K	738.78 kg/m3 and 738.8 kg/m3	–	1.35
353.15 K	731.9 kg/m3	–	1.15
363.15 K	724.9 kg/m3	–	1.02
373.15 K	717.9 kg/m3	–	0.885

CCCCCCCCCCCCCCCC [hexadecane] + CCCC1CCCCC1
[2]
Conditions	mass density [kg/m3]	speed of sound [m/s]	viscosity [mPa·s]
293.15 K	773.37	1357.4	3.47
303.15 K	766.43	1319.6	2.76
313.15 K	759.51	1282.9	2.24
323.15 K	752.61	1247	1.86
333.15 K	745.69	1212.1	1.56
343.15 K	738.78	–	1.35
353.15 K	731.9	–	1.15
363.15 K	724.9	–	1.02

CCCCCCCCCCCCCCCC [hexadecane] + CCCCCCC1CCCCC1
[2]
Conditions	mass density [kg/m3]	viscosity [mPa·s]
293.15 K	773.37	3.47
303.15 K	766.43	2.76
313.15 K	759.51	2.24
323.15 K	752.61	1.86
333.15 K	745.69	1.56
343.15 K	738.8	1.35
353.15 K	731.9	1.15
363.15 K	724.9	1.02

CCCCCCCCCCCCCCCC [hexadecane] + CCCCCCCC1CCCCC1
[2]
Conditions	mass density [kg/m3]	viscosity [mPa·s]
293.15 K	773.37	3.47
303.15 K	766.43	2.76
313.15 K	759.51	2.24
323.15 K	752.61	1.86
333.15 K	745.69	1.56
343.15 K	738.8	1.35
353.15 K	731.9	1.15
363.15 K	724.9	1.02
373.15 K	717.9	0.885
